“Also recorded” adds a separate entry of the source. Like-named read-outs stand apart in the source and are kept apart here.
Assays:
[1] = system: protein translation process
[2] = system: 2 mm diameter mouse ear hole; assay: 2 mm ear hole trauma mouse model (ear hole closure); design: species or system C57BL/6 mice; conditions: in vivo
[3] = system: STING-TBK1-IRF3 signaling pathway / ISG genes in mouse primary fibroblasts and macrophages; assay: CHX-induced ISG gene expression in primary cells (RNA-seq, Ribo-seq, qPCR, immunofluorescence); format: cell-based
scalded skin = assay: mouse skin scald model; format: in vivo, mice; conditions: CHX 20 mg/kg
[4] = system: 4 mm diameter mouse ear hole; design: species or system mice; conditions: in vivo
[5] = system: bleomycin-induced lung fibrosis injury; assay: bleomycin-induced chronic injury model of lung fibrosis; format: in vivo, C57B1/6 mice
[6] = CHX 20 mg/kg, lung function testing

O=C1N[C@H]2[C@H](O)[C@H](O)[C@@H](O)[C@H](O)[C@@H]2c2cc3c(c(O)c21)OCO3 [Pancratistatin] was tested, and the “inhibition of protein translation (Puromycin incorporation)” value [1] was “could significantly inhibit the protein translation process”, the “closure of 2 mm ear hole” value [2] was “completely closed” and the “nature of the closure (HE and Masson staining)” value [2] was “identified as a regeneration event”.
In the case of O=C1N[C@@H]2C(=C[C@H](O)[C@@H](O)[C@H]2O)c2cc3c(c(O)c21)OCO3 [Narciclasine], the “inhibition of protein translation (Puromycin incorporation)” value ([1]; CHX as control) is reported as “could significantly inhibit the protein translation process”, the “healing of 2 mm ear holes” value [2] is reported as “significantly promote the healing of 2 mm ear holes” and the “regenerated tissues in closed ear holes (histochemical and Masson staining)” value [2] is reported as “could regenerate tissues such as hair follicles, glands, cartilage and muscles, and tissue derivatives”.
In the case of Cc1nn(CC(F)(F)F)cc1Nc1ncc(Br)c(NCc2ccc(S(N)(=O)=O)cc2)n1 [GSK8612], the “expression of ISG genes induced by CHX” value ([3]; GSK8612 5 μM, CHX 1 μg/ml) is reported as “significantly inhibited the expression of ISG genes” and the “CHX-induced ear hole regeneration” value [2] is reported as “significantly inhibited”.
For COc1ccc(C[C@H]2NC[C@H](O)[C@H]2OC(C)=O)cc1 [Ani, Anisomycin], the “healing of the 2 mm ear hole” value [2] was “significantly promote the healing of the ear hole”.
C[C@@H]1C[C@@H]([C@H](O)CC2CC(=O)NC(=O)C2)C(=O)[C@@H](C)C1 [CHX, 4-((R)-2-((1S,3S,5S)-3,5-dimethyl-2-oxocyclohexyl)-2-hydroxyethyl)piperidine-2,6-dione] was tested, and the “collagen accumulation (Sirius red staining)” value (scalded skin) was “reduced collagen accumulation”, the “skin tissue regeneration (histochemical staining)” value (scalded skin) was “significantly promoted the regeneration of epidermis, hair follicles, glands, dermis, and blood vessels” and the scar area (scalded skin; after 40 days of administration) was “significantly reduced scar area”. For the same compound, the “wound area of 4 mm ear hole” value [4] was “significantly reduced”, the survival rate ([5]; CHX 20 mg/kg i.p. every two days from 2 days after surgery, 18th day of treatment) was 75% and the body weight loss ([5]; CHX 20 mg/kg, ***P<0.001) was “significantly inhibited the body weight loss”. For the same compound, the “lung fibrosis (HE staining and Sirius red staining)” value ([5]; CHX 20 mg/kg, after 14 days of treatment) was “significantly inhibited”, the body weight ([5]; CHX 20 mg/kg, after 15 days) was ~85% and the respiratory rate [5, 6] was “significantly maintained normal”. For the same compound, the tidal volume [5, 6] was “significantly maintained normal”, the “tissue integrity and fibrosis (HE staining)” value ([5]; CHX administration started 9 days after bleomycin injury (more severe model)) was “significantly restored tissue integrity and reduced fibrosis” and the “development-related genes (blood vessels, circulatory system), RNA-Seq” value ([5]; CHX-treated group) was “upregulated”. For the same compound, the “genes related to respiratory system development, RNA-Seq” value ([5]; CHX-treated group) was “promoted the upregulation”, the “fibrosis-related genes (extracellular matrix, collagen), RNA-Seq” value ([5]; CHX-treated group vs control after injury) was “significantly downregulate” and the “expression of classical ISGs (Mx2, Ifit1, Cxcl10, Ifih1), qPCR” value ([3]; CHX, fibroblasts and macrophages) was “upregulate the expression of classical ISGs”. The “STING-TBK1-IRF3 signaling (perinuclear STING, nuclear IRF3), immunofluorescence” value ([3]; CHX, in vitro) was “activated ISGs by activating the STING-TBK1-IRF3 signaling pathway”, the “number of genes upregulated at both transcriptional and translational levels in both cell types” value ([3]; CHX, mouse primary fibroblasts and macrophages, RNA-seq and Ribo-seq) was 32 genes and the “HE staining of auricle tissue” value [2] was “healed the tissue after damage and formed granulation tissue”. For the same compound, the “HE staining of auricle tissue: healing of trauma” value [2] was “completely healed”, the “HE staining of wound site: regenerated tissues” value [2] was “regeneration of tissues and tissue derivatives such as hair follicles, glands, cartilage, muscles and blood vessels” and the “KI67 immunohistochemical staining of auricle tissue (basal cells)” value [2] was “expressed a large amount of KI67”. For the same compound, the “closure of 2 mm ear hole wound” value [2] was “completely closed”, the “dose dependence of promotion of 2 mm ear hole healing” value [2] was “dose-dependent” and the “healing condition of 2 mm ear hole (photograph)” value [2] was “completely closed”. The “healing effect compared with Ani” value [2] was “better”, the “healing effect with different administration manners” value [2] was “healing effects were produced; also recorded: different manners of administration had the effect of promoting regeneration” and the “healing of the 2 mm ear hole” value [2] was “significantly promote the healing of the ear hole”. The “closure of 2 mm diameter ear holes” value ([2]; ip) was “promoted the closure”.
